Source: ChEMBL document CHEMBL1201862, “PubChem BioAssay data set” (2004)
The source made the active and inactive calls. No stated cut-off is given here; in the data, actives have a measured IC50 and inactives only a lower limit.

Molecular target: Envelope glycoprotein gp160 (Human immunodeficiency virus 1, UniProt Q6QLK5)
Experiment: inhibitors of HIV fusion peptide binding, primary screen, biochemical, uHTS, fluorescence dequenching (AID 1986)

Envelope glycoprotein gp160, sequence (Q6QLK5 whole entry, the tested form may be a part): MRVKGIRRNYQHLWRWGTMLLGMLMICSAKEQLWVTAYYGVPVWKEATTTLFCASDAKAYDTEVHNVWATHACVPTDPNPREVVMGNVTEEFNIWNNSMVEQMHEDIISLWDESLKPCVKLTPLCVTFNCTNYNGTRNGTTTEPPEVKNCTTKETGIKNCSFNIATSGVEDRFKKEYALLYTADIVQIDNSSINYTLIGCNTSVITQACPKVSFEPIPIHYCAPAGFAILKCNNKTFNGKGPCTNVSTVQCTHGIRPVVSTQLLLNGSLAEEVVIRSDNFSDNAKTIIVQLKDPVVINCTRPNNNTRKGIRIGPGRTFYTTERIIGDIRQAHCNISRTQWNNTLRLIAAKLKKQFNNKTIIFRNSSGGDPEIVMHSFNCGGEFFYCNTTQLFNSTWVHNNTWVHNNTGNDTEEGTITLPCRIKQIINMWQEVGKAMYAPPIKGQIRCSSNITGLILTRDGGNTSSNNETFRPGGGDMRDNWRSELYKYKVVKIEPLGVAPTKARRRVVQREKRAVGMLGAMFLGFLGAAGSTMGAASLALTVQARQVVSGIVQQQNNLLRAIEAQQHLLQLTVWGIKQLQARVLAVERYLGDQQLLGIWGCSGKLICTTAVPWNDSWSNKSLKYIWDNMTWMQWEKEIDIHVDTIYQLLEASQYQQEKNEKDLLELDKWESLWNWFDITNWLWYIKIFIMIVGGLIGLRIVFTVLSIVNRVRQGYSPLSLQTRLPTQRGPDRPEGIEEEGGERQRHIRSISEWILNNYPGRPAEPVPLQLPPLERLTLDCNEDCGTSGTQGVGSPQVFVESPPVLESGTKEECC

Row | Structure (SMILES) | IC50
1 | O=C(O)CN1C(=O)/C(=C\c2cccc(OCc3ccc(Cl)cc3)c2)SC1=S | 13.6 µM (active)
2 | CCCCCCc1c(C)c2ccc(OCC(=O)N[C@@H](Cc3ccccc3)C(=O)O)cc2oc1=O | 22.8 µM (active)
3 | O=C1NC(=S)N(c2ccc(F)cc2)C(=O)/C1=C/c1ccco1 | 15.6 µM (active)
4 | Cc1cc(C)cc(-n2cccc2/C=C2/C(=N)N3C(=NC2=O)SN=C3S(C)(=O)=O)c1 | 11.6 µM (active)
5 | O=[N+]([O-])c1cccc(S(=O)(=O)Nc2nc3ccccc3nc2Nc2cccc(S(=O)(=O)N3CCCCC3)c2)c1 | 14.5 µM (active)
6 | Cc1ccc(C)c(S(=O)(=O)/N=C2\C=C(NS(=O)(=O)c3ccccc3)C(=O)c3ccccc32)c1 | 12.9 µM (active)
